Experimental findings from patent publication US9233167B2, “Oligomer-opioid agonist conjugates” (NEKTAR THERAPEUTICS, priority 2007, dated 2016) are described below.

Data set [1] deals with cloned human mu opioid receptor (Homo sapiens (Human), UniProt P35372). The experiment in a line: cell-based. The protocol:
(§1) The efficacy of the various PEG-opioid conjugates was measured by their ability to inhibit cAMP formation following receptor activation. Studies were conducted in CHO cells heterologously expressing the cloned human mu, kappa or delta opioid receptors. cAMP was measured using a cAMP HiRange homogenous time-resolved fluorescence assay (HTRF Assay), that is based on a competitive immunoassay principle (Cisbio, Cat.#62AM6PEC).
(§2) Briefly, suspensions of cells expressing either the mu, kappa or delta opioid receptors were prepared in buffer containing 0.5 mM isobutyl-methyl xanthine (IBMX). […] EC50 values were calculated for each compound from a sigmoidal dose-response plot of concentrations versus maximum response. To determine if the compounds behaved as full or partial agonists in the system, the maximal response at the highest tested concentrations of compounds were compared to that produced by a known full agonist.

Data set [2] is described as follows: Intravenous pharmacokinetics in Sprague-Dawley rats.
Data set [3] has as its target T1, recombinant human mu opioid receptor (Homo sapiens (Human), UniProt P35372). The data set is classed as binding. The protocol:
(§3) Radioligand displacement was measured using scintillation proximity assays (SPA).
(§4) Briefly, serial dilutions of the test compounds were placed in a 96-well plate to which were added SPA beads, membrane and radioligand. The assay conditions for each opioid receptor subtype are described in Table 10 below. The plates were incubated for 8 hours-overnight at room temperature, spun at 1000 rpm to pellet the SPA beads, and radioactivity was measured using the TopCount® microplate Scintillation counter. Specific binding at each concentration of test compound was calculated by subtracting the non-specific binding measured in the presence of excess cold ligand. IC50 values were obtained by non-linear regression of specific binding versus concentration curves and Ki values were calculated using Kd values that were experimentally pre-determined for each lot of membrane preparations.

Data set [4] is described as follows: in vivo. Conditions: male, Sprague-Dawley, rat, plasma, 5 mg/kg.
A short description of data set [5]: in vivo. The following applies: male, Sprague-Dawley, rat, plasma, iv, 1 mg/kg.
Data set [6] is described as follows: Oral pharmacokinetics in Sprague-Dawley rats. Conditions: male, rat, plasma, 5 mg/kg.
Data set [7] deals with recombinant human kappa opioid receptor (Homo sapiens (Human), UniProt P41145). In kind it is binding. The protocol: as §3, §4
In data set [8] the target is cloned human kappa opioid receptor (Homo sapiens (Human), UniProt P41145). In kind it is cell-based. The protocol: as §1, §2
Data set [9] concerns the target recombinant human delta opioid receptor (Homo sapiens (Human), UniProt P41143). Conditions: Ki relative to nalbuphine. The protocol: (§5) Using conventional receptor binding assay techniques, several molecules were assayed to determine binding activity at kappa, mu and delta opioid subtypes of opioid receptors.
(§6) Cells were plated in 24 well plates at a density of 0.2-0.3*10^6 cells/well and washed with assay buffer containing 50 mM Tris.HCl and 5 mM MgCl2 (pH 7.4). Competition binding assays were conducted in whole cells incubated with increasing concentrations of test compounds in the presence of appropriate concentration of radioligand. 0.5 nM ^3H Naloxone, 0.5 nM ^3H Diprenorphine and 0.5 nM ^3H DPDPE were used as the competing radioligands for mu, kappa and delta receptors respectively. Incubations were carried out for two hours at room temperature using triplicate wells at each concentration. At the end of the incubation, cells were washed with 50 mM Tris HCl (pH 8.0), solubilized with NaOH and bound radioactivity was measured using a scintillation counter.
(§7) Specific binding is determined by subtraction of the cpm bound in the presence of 50-100× excess of cold ligand. Binding data assays were analyzed using GraphPad Prism 4.0 and IC50 is generated by non-linear regression from dose-response curves.

In data set [10] the target is T1, recombinant human mu opioid receptor. The data set is classed as binding. The protocol: as §5, §6, §7
This is another data set of the same source.

Setting [11] is: inhibition of cAMP formation, 3 μM forskolin, CHO cells.
The mark [12] stands for this setting: inhibition of cAMP formation, maximal response vs known full agonist.
[13] abbreviates: hydroxycodone series, IV 1 mg/kg, rats, Mean ± SD.
[14] abbreviates: SPA, CHO-K1 membranes, [3H]DAMGO 6 nM.
Where [15] appears, read: male, Sprague-Dawley, rat, plasma, iv, 1 mg/kg.

Read-outs that look alike come from different tables or passages of the source.

Sequence of recombinant human delta opioid receptor (P41143 whole entry, looked up): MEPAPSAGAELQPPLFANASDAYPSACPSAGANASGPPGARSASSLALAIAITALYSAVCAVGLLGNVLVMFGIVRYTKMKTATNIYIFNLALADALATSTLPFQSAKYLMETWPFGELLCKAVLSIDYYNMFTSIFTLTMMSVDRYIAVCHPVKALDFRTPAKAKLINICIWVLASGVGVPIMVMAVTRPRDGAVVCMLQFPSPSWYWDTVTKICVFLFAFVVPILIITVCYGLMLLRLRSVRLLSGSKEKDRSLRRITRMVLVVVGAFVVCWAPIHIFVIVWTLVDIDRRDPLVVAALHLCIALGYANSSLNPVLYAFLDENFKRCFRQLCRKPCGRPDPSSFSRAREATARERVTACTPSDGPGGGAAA

In [1] (setting [11]), `COCCOCCOCCO[C@H]1CC[C@@]2(O)[C@H]3Cc4ccc(OC)c5c4[C@@]2(CCN3C)[C@H]1O5` [α-6-mPEG3-O-Hydroxycodone, α-6-mPEG3-O-hydroxycodone] showed an EC50 of 2.83 µM. Further, the “MU OPIOID RECEPTOR % max effect” value in data set [1] (setting [12]) amounted to 108%. In data set [2] (setting [13]), this molecule displayed an AUCall of 13800 ± 1050 ng·min/mL, a CL of 71.7 ± 4.99 mL/min/kg, a Cmax of 746 ± 2.08 ng/mL and an MRTlast of 32.5 ± 1.92 min. In addition, in [2] (setting [13]), the “T1/2(z)” value amounted to 48.5 ± 7.83 min and the Vss was determined as 2.62 ± 0.206 L/kg. Also, the Ki in data set [3] (setting [14]) was found to be 0.775 µM.
In [1] (setting [11]), `COc1ccc2c3c1O[C@H]1C(O)CC[C@@]4(O)[C@@H](C2)N(C)CC[C@]314` (stereo partly drawn) [Hydroxycodone, α-6-hydroxycodone, reference compound] returned an EC50 of 3.16 µM.
With `COc1ccc2c3c1O[C@H]1[C@@H](O)C=C[C@H]4[C@@H](C2)N(C)CC[C@@]341` [Codeine], the bioavailability in the data set “in vivo [4]” (oral) amounted to 0.52%. In addition, in the data set “in vivo [4]” (po), the AUC was 5.47 ng·h/mL, the AUC(0-inf) was 7.18 ng·h/mL, the Cmax came to 6.24 ± 2.51 ng/mL and the mean residence time MRT last is 33.2 min. In the data set “in vivo [5]”, this molecule had an AUC of 183 ng·h/mL, an AUC(0-inf) of 190 ng·h/mL, a Cmax of 469 ± 20.4 ng/mL and an MRT last of 40.2 min. In the data set “in vivo [5]”, the Vd amounted to 4.14 ± 0.7 L/kg and the clearance worked out at 89.7 ± 15.3 mL/min/kg. Moreover, the Tmax in [6] is 15 min.
As to `COCCOCCOCCOCCOCCOCCOCCO[C@H]1CC[C@@]2(O)[C@H]3Cc4ccc(OC)c5c4[C@@]2(CCN3C)[C@H]1O5` [α-6-mPEG7-O-Hydroxycodone, α-6-mPEG7-O-oxycodone], a half-maximal response in data set [1] (setting [11]) (EC50) required 7.45 µM. In addition, the “MU OPIOID RECEPTOR % max effect” value in [1] (setting [12]) was 101%. Besides, in data set [2] (setting [13]), the AUCall was determined as 14300 ± 583 ng·min/mL, the AUCinf was found to be 15800 ± 728 ng·min/mL, the CL worked out at 63.3 ± 2.99 mL/min/kg and the Cmax stood at 489 ± 26.5 ng/mL. Moreover, in data set [2] (setting [13]), the MRTlast is listed as 54.3 ± 0.372 min, the “T1/2(z)” value came out at 87.0 ± 3.25 min and the Vss was found to be 5.31 ± 0.139 L/kg. In addition, the Ki in data set [3] (setting [14]) came out at 1.61 µM.
As to α-6-mPEG4-O-codeine, in [1], it took 22.1 µM to reach a half-maximal effect (EC50) and the “MU OPIOID RECEPTOR % max effect” value is on record as 99%. Besides, in [7], the inhibition constant Ki was determined as 97 µM. In [3], the Ki came out at 2.89 µM.
With α-6-mPEG1-O-codeine, in data set [1], the response was half-maximal at 8.57 µM (EC50) and the “MU OPIOID RECEPTOR % max effect” value amounted to 80%. For the same molecule, the “KAPPA OPIOID RECEPTOR % max effect” value in data set [8] was 51%. Also, in data set [7], the Ki came out at 54.7 µM. The Ki in [3] came to 1.82 µM.
Turning to α-6-mPEG9-O-codeine, in [1], a half-maximal effect (EC50) was put at 48.2 µM and the “MU OPIOID RECEPTOR % max effect” value is reported as 80%. In data set [3], the Ki came out at 9.98 µM.
With `COCCOCCOCCOCCOCCO[C@H]1CC[C@@]2(O)[C@H]3Cc4ccc(OC)c5c4[C@@]2(CCN3C)[C@H]1O5` [α-6-mPEG5-O-Hydroxycodone, α-6-mPEG5-O-hydroxycodone], a half-maximal response in [1] (setting [11]) (EC50) required 5.04 µM. The “MU OPIOID RECEPTOR % max effect” value in [1] (setting [12]) worked out at 108%. In data set [2] (setting [13]), this molecule showed an AUCall of 16900 ± 1800 ng·min/mL, an AUCinf of 17700 ± 1990 ng·min/mL, a CL of 57.0 ± 6.07 mL/min/kg and an MRTlast of 46.2 ± 1.86 min. Moreover, in data set [2] (setting [13]), the “T1/2(z)” value amounted to 62.1 ± 3.85 min and the Vss came out at 3.30 ± 0.184 L/kg. Besides, the Ki in data set [3] (setting [14]) was 1.86 µM.
For α-6-mPEG7-O-codeine, in [1], a half-maximal effect (EC50) was put at 44.7 µM and the “MU OPIOID RECEPTOR % max effect” value turned out to be 75%. In addition, the Ki in [3] was 9.96 µM.
In the case of `COCCOCCOCCOCCOCCOCCOCCOCCOCCO[C@H]1CC[C@@]2(O)[C@H]3Cc4ccc(OC)c5c4[C@@]2(CCN3C)[C@H]1O5` [α-6-mPEG9-O-Hydroxycodone, α-6-mPEG9-O-hydroxycodone], the “mean t1/2 value as multiple of that of the parent molecule” value in [2] (IV 1 mg/kg, rats) was 3 times. In data set [2] (setting [13]), this molecule showed an AUCall of 16600 ± 2190 ng·min/mL, an AUCinf of 21000 ± 4230 ng·min/mL, a CL of 48.9 ± 9.41 mL/min/kg and a Cmax of 955 ± 149 ng/mL. Also, in data set [2] (setting [13]), the MRTlast turned out to be 52.7 ± 4.04 min and the Vss was 6.35 ± 0.349 L/kg.
With α-6-mPEG5-O-codeine, the “KAPPA OPIOID RECEPTOR % max effect” value in [8] came to 60%. Moreover, the Ki in data set [7] was 59.1 µM.
Regarding α-6-mPEG6-O-codeine, in [1], the EC50 was determined as 97.4 µM and the “MU OPIOID RECEPTOR % max effect” value was 80%. Moreover, in [8], the “KAPPA OPIOID RECEPTOR % max effect” value is recorded as 21%. Besides, the Ki in [7] is more than 160 µM. For the same molecule, the Ki in data set [3] was 14.2 µM.
Molecule `COCCOCCOCCOCCOCCOCCO[C@H]1CC[C@@]2(O)[C@H]3Cc4ccc(OC)c5c4[C@@]2(CCN3C)[C@H]1O5` [α-6-mPEG6-O-Hydroxycodone, α-6-mPEG6-O-hydroxycodone] displayed an EC50 in data set [1] (setting [11]) of 12.5 µM. The “MU OPIOID RECEPTOR % max effect” value in [1] (setting [12]) is recorded as 102%. In [2] (setting [13]), this molecule returned an AUCall of 12600 ± 2370 ng·min/mL, an AUCinf of 13100 ± 2390 ng·min/mL, a CL of 77.9 ± 14.4 mL/min/kg and a Cmax of 445 ± 83.6 ng/mL. Besides, in data set [2] (setting [13]), the MRTlast stood at 47.7 ± 1.41 min, the “T1/2(z)” value came out at 62.2 ± 5.17 min and the Vss worked out at 4.68 ± 0.938 L/kg. Further, the Ki in data set [3] (setting [14]) was 1.9 µM.
Consider `COCCOCCOCCOCCO[C@H]1CC[C@@]2(O)[C@H]3Cc4ccc(O)c5c4[C@@]2(CCN3CC2CCC2)[C@H]1O5` [6-O-mPEG4-Nalbuphine, 6-O-mPEG4-nalbuphine], for which, in data set [9], the “Fold vs Nalbuphine At DELTA” value was determined as 0.47. The “Fold vs Nalbuphine At MU” value in data set [10] is given as 1.23.
For the molecule `COCCOCCO[C@H]1CC[C@@]2(O)[C@H]3Cc4ccc(OC)c5c4[C@@]2(CCN3C)[C@H]1O5` [α-6-mPEG2-O-Hydroxycodone, α-6-mPEG2-O-hydroxycodone], the EC50 in data set [1] (setting [11]) amounted to 5 µM. In addition, in data set [1] (setting [12]), the “MU OPIOID RECEPTOR % max effect” value is given as 101%. In [2] (setting [13]), the AUCall was determined as 12000 ± 1610 ng·min/mL, the AUCinf came out at 12200 ± 1650 ng·min/mL, the CL was 83.3 ± 10.8 mL/min/kg and the Cmax was 513 ± 48.8 ng/mL. Moreover, in [2] (setting [13]), the MRTlast is given as 37.0 ± 2.60 min, the “T1/2(z)” value came out at 44.6 ± 1.80 min and the Vss was determined as 3.36 ± 0.298 L/kg. Also, in data set [3] (setting [14]), the Ki was 0.632 µM.
Consider `COc1ccc2c3c1O[C@H]1C(=O)CC[C@@]4(O)[C@@H](C2)N(C)CC[C@]314` [Oxycodone, reference compound], for which the Emax in [1] (CHO, read-out: MU OPIOID RECEPTOR % max effect) worked out at 95%. In data set [2] (setting [15]), this molecule showed an AUC of 213 ng·h/mL, an AUC(0-inf) of 217 ng·h/mL, a Cmax of 495 ± 56 ng/mL and an MRT last of 37 min. In data set [2] (setting [15]), this molecule yielded a clearance of 77.1 ± 6.26 mL/min/kg and a half-life of 47 ± 3.99 min. Also, in data set [6], the AUC was 75.3 ng·h/mL, the peak level (Cmax) was 25.5 ± 1.86 ng/mL, the MRT last is 179 min and the Tmax was 15 min.
Take α-6-mPEG2-O-codeine: in data set [1], the half-maximal effective concentration (EC50) worked out at 5.15 µM and the “MU OPIOID RECEPTOR % max effect” value was determined as 75%. In [8], it took 40.1 µM to reach a half-maximal effect (EC50) and the “KAPPA OPIOID RECEPTOR % max effect” value came out at 59%. In addition, the Ki in data set [7] was 22.6 µM. The Ki in [3] came out at 1.38 µM.
